From PubChem BioAssay (NCI) come the findings set out here.

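Protocol summary: plate cells (96-well), add compound at 5 concentrations, incubate 48 h, interpolate endpoints linearly. Definition used: TGI = concentration required for complete inhibition of growth.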 Where only a bound is given, the exact number is not on record here.

Among the test systems are 786-0 renal; SNB-75 CNS; TK-10 renal; EKVX NSCLC; SN12C renal; ACHN renal; NCI-H226 lung; SW-620 colon; BT-549 breast; RXF 393 renal; A498 renal; SNB-19 CNS; A549 NSCLC; OVCAR-8 ovarian; NCI/ADR-RES ovarian; MALME-3M melanoma; KM12 colon; NCI-H460 lung; K-562 leukemia.
Holding throughout (assay): NCI tumour cell line growth inhibition, 48 h

`Cc1ccc(-n2cnc3c(N)nc(N)nc32)cc1`: the TGI with 786-0 renal, in the assay with SNB-75 CNS, with TK-10 renal, with EKVX NSCLC, in the assay with SN12C renal and in the assay on ACHN renal was more than 100 µM throughout. Moreover, the TGI in the assay on NCI-H226 lung, with SW-620 colon, in the assay on BT-549 breast, in the assay with RXF 393 renal, with A498 renal and in the assay with SNB-19 CNS was more than 100 µM each time. The TGI in the assay with A549 NSCLC, with OVCAR-8 ovarian, with NCI/ADR-RES ovarian, in the assay on MALME-3M melanoma and in the assay on KM12 colon was more than 100 µM in each case.

As for `CCOC(=O)C(C(=O)OCC)=C1NC2(c3ccccc3Nc3ccc(C)cc32)C(C#N)S1` (stereo unspecified), the TGI stood at 30.1 µM in the assay on 786-0 renal; 64.3 µM with SNB-75 CNS; 31.1 µM with TK-10 renal; 39.5 µM in the assay on EKVX NSCLC; 8.68 µM in the assay with SN12C renal; 16.3 µM with ACHN renal. Further, the TGI in the assay with NCI-H226 lung stood at 25.3 µM; in the assay on SW-620 colon, 30.3 µM; with BT-549 breast it was 29.5 µM; with RXF 393 renal, 27.8 µM; with NCI-H460 lung it was 12.7 µM; in the assay on A498 renal, 29.4 µM. For the same molecule, the TGI was found to be 30.8 µM in the assay with SNB-19 CNS; 25.8 µM in the assay with K-562 leukemia; 21.8 µM with A549 NSCLC; 35 µM in the assay on OVCAR-8 ovarian; 25.7 µM in the assay on NCI/ADR-RES ovarian; 30.7 µM in the assay on MALME-3M melanoma. This molecule returned a TGI with KM12 colon of 41.3 µM.

Regarding `CC(C)(C)[Si](C)(C)O[C@@H](C(=O)OC1C=CCCC1)[C@@H](NC(=O)c1ccccc1)c1ccccc1` (stereo partly specified), the TGI was more than 100 µM in the assay on 786-0 renal; more than 100 µM with SNB-75 CNS; more than 100 µM in the assay with TK-10 renal; more than 100 µM with EKVX NSCLC; 61.3 µM in the assay on SN12C renal; 62.9 µM with ACHN renal. The TGI with NCI-H226 lung is more than 100 µM; with SW-620 colon, more than 100 µM; in the assay with BT-549 breast, more than 100 µM; with RXF 393 renal, 34.3 µM; in the assay on NCI-H460 lung it was 42.2 µM; with A498 renal, more than 100 µM. Moreover, the TGI with SNB-19 CNS is more than 100 µM; with K-562 leukemia, 37 µM; with A549 NSCLC, 94.9 µM; in the assay on OVCAR-8 ovarian, more than 100 µM; in the assay with NCI/ADR-RES ovarian, more than 100 µM; with MALME-3M melanoma it was more than 100 µM. Moreover, the TGI with KM12 colon was more than 100 µM.

`COc1cc2c[n+](C)c3c4cc5c(cc4ccc3c2cc1OC)OCO5`: the TGI is 21.7 µM with 786-0 renal; 0.767 µM in the assay with SNB-75 CNS; more than 93.1 µM with TK-10 renal; 18.7 µM in the assay on EKVX NSCLC; more than 27.8 µM in the assay with SN12C renal; more than 100 µM in the assay with ACHN renal. Further, the TGI was 15.3 µM with NCI-H226 lung; 26 µM in the assay with SW-620 colon; 78.4 µM with BT-549 breast; 49.7 µM in the assay on RXF 393 renal; 14.7 µM with NCI-H460 lung; 2.67 µM in the assay with A498 renal. The TGI in the assay on SNB-19 CNS was 21.5 µM; with K-562 leukemia it was 32.2 µM; in the assay on A549 NSCLC, 0.756 µM; in the assay on OVCAR-8 ovarian, 29.9 µM; in the assay with NCI/ADR-RES ovarian it was more than 100 µM; in the assay on MALME-3M melanoma it was 37.5 µM. In the assay with KM12 colon, the TGI was 7.21 µM.

For `COC(=O)C(Cc1c[nH]c2ccccc12)N=C1Nc2ccncc2S(=O)(=O)N1c1ccccc1` (stereo unspecified), the TGI was more than 100 µM in the assay on 786-0 renal; 75 µM in the assay on SNB-75 CNS; more than 100 µM in the assay on TK-10 renal; more than 100 µM in the assay on EKVX NSCLC; more than 100 µM in the assay with SN12C renal; more than 100 µM with ACHN renal. Also, the TGI in the assay on NCI-H226 lung was 61.4 µM; in the assay with SW-620 colon, 99.3 µM; with BT-549 breast, more than 100 µM; in the assay on RXF 393 renal, 56.8 µM; in the assay with NCI-H460 lung it was more than 100 µM; in the assay with A498 renal it was more than 100 µM. Moreover, the TGI with SNB-19 CNS was more than 100 µM; in the assay with K-562 leukemia, 51.8 µM; in the assay on A549 NSCLC, more than 100 µM; in the assay with OVCAR-8 ovarian it was more than 100 µM; in the assay on NCI/ADR-RES ovarian it was more than 100 µM; in the assay on MALME-3M melanoma, 40.5 µM. Further, the TGI in the assay on KM12 colon was more than 100 µM.

Regarding `O=C1NC(=O)C(Cc2ccccc2)(c2cccnc2)N1` (stereo unspecified), the TGI in the assay on 786-0 renal, in the assay on SNB-75 CNS, in the assay on TK-10 renal, with EKVX NSCLC, with SN12C renal and in the assay with ACHN renal was more than 100 µM throughout. The TGI in the assay with NCI-H226 lung, with SW-620 colon, with BT-549 breast, with RXF 393 renal, in the assay with NCI-H460 lung and with A498 renal was more than 100 µM throughout. The TGI in the assay on SNB-19 CNS, in the assay on K-562 leukemia, with A549 NSCLC, in the assay on OVCAR-8 ovarian, in the assay on NCI/ADR-RES ovarian and with MALME-3M melanoma was more than 100 µM each time. In addition, the TGI with KM12 colon is more than 100 µM.

For `CCOC(=O)C(SCCO)C(C(=O)OCC)n1cnc2c(N)ncnc21` (stereo unspecified), the TGI with 786-0 renal was 12.2 µM; in the assay on SNB-75 CNS it was 24.7 µM; in the assay on TK-10 renal it was 28.3 µM; in the assay with EKVX NSCLC, 38.1 µM; with SN12C renal, 25.6 µM; in the assay with ACHN renal it was 22.4 µM. Moreover, the TGI with NCI-H226 lung turned out to be 38 µM; with SW-620 colon, 12.5 µM; in the assay with BT-549 breast, 30.8 µM; in the assay on RXF 393 renal it was 29.6 µM; with NCI-H460 lung, 18 µM; in the assay with A498 renal, 19.2 µM. In addition, the TGI is more than 69.1 µM with SNB-19 CNS; 14.6 µM with K-562 leukemia; more than 100 µM with A549 NSCLC; 31.2 µM with OVCAR-8 ovarian; 56.7 µM in the assay on NCI/ADR-RES ovarian; 23.8 µM in the assay on MALME-3M melanoma. In the assay on KM12 colon, this molecule displayed a TGI of 35.2 µM.
